Experimental data: patent publication US7402548B2, “Benzoxazole compounds, process for producing the same and herbicides” (Kyoyu Agri Co., Ltd., priority 2000, dated 2008)

Legend:
Cassia obtusifolia = experiment: Foliar spread test for upland field; type: in vivo; design: key: 0 = normal development, 5 = all killed; settings: foliar spray, 500 ppm, 3 weeks, glass house 25° C.
Experimental: (§1) The herbicidal effects are evaluated according to the following 6 ranks as compared with non-treated district. (0: normal development, 1: Less damaged, 2: Slightly damaged, 3: Moderately damaged, 4: Severely damaged, 5: All killed). Incidentally, “-” in the column means not investigated.
(§2) Wagner pots, each having an area of 1/5000 are, were packed with volcanic ash soil and then each seed of corn, soybean, cotton, wheat, solgum, sugar beat, Large crabgrass, barnyardgrjass, green foxtail, blackgrass, annual bluegrass, common lambsquarters, livid amaranth, velvetleaf, morning glory, Xanthium pensylvanicum and Cassia obtusifolia was planted, covered with soil and grown in a glass house at an average temperature of 25° C. for about 2 weeks.
(§3) Each wettable powder of the desired compounds (I) shown in Tables 1 to 21, 24, 25, 28 and 29 prepared in accordance with Example 2 was diluted to 500 ppm with water containing a surfactant (0.5%) and then uniformly sprayed on the above respective plants.
(§4) After these plants were controlled in a glass house at an average temperature of 25° C. for 3 weeks, the herbicidal effects thereof were investigated.
(§5) The herbicidal effects were evaluated according to the evaluation method described in the above (1).

Xanthium pensylvanicum = experiment: Foliar spread test for upland field; type: in vivo; design: key: 0 = normal development, 5 = all killed; settings: foliar spray, 500 ppm, 3 weeks, glass house 25° C.
Experimental: as §1, §2, §3, §4, §5

barnyard grass [1] = experiment: Soil treatment test for upland field; type: in vivo, Eschinochloa crusgalli; design: key: 0 = normal development, 5 = all killed; settings: 500 g/ha, 3 weeks, glass house 25° C.
Method in brief: (§6)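 Pre-emergence soil spray, 500 g/ha, WP formulation in water + 0.05% surfactant; alluvial soil; glasshouse, avg 25° C, 3 wk. Score 0 (normal) to 5 (all killed) vs untreated.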

barnyardgrjass = experiment: Foliar spread test for upland field; type: in vivo, Eschinochloa crusgalli; design: key: 0 = normal development, 5 = all killed (6 ranks vs. untreated); settings: foliar spray, 500 ppm, 3 weeks, glass house 25° C.
Method in brief: (§7)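 Plants grown about 2 weeks at 25 °C in volcanic ash soil were sprayed with wettable powder diluted to 500 ppm in water with 0.5% surfactant. After 3 weeks at 25 °C, damage was scored 0 (normal) to 5 (all killed) against untreated plants.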

bulrush = experiment: Herbicidal test for paddy field; type: in vivo, Scrips juncoides; settings: 500 g/ha, dropwise addition to paddy water at 1.5 leaf stage of barnyard grass; glass house 25° C., 3 weeks; rank 0-5 vs non-treated district
Method in brief: (§8)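 Wettable-powder formulations in water with 0.05% surfactant were dripped onto flooded (3 cm) Ube alluvial-soil pots at 500 g/ha, applied at barnyard grass 1.5-leaf stage. Plants were kept in a glasshouse at 25° C. for 3 weeks. Damage was scored 0 (normal) to 5 (all killed) versus untreated plants.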

common lambsquarters [2] = experiment: Soil treatment test for upland field; type: in vivo, Chenopodium album; design: key: 0 = normal development, 5 = all killed; settings: 500 g/ha, 3 weeks, glass house 25° C.
Method in brief: as §6

solgum [3] = experiment: Soil treatment test for upland field; type: in vivo; design: key: 0 = normal development, 5 = all killed; settings: 500 g/ha, 3 weeks, glass house 25° C.
Method in brief: as §6

sugar beat [4] = experiment: Soil treatment test for upland field; type: in vivo; design: key: 0 = normal development, 5 = all killed; settings: 500 g/ha, 3 weeks, glass house 25° C.
Method in brief: as §6

corn [5] = experiment: Soil treatment test for upland field; type: in vivo; design: key: 0 = normal development, 5 = all killed; settings: 500 g/ha, 3 weeks, glass house 25° C.
Method in brief: as §6

blackgrass [6] = experiment: Soil treatment test for upland field; type: in vivo, Alopecurus aegualis; design: key: 0 = normal development, 5 = all killed; settings: 500 g/ha, 3 weeks, glass house 25° C.
Method in brief: as §6

arrowhead = experiment: Herbicidal test for paddy field; type: in vivo, Sagittaria pygmaea; settings: 500 g/ha, dropwise addition to paddy water at 1.5 leaf stage of barnyard grass; glass house 25° C., 3 weeks; rank 0-5 vs non-treated district
Experimental: (§9) Wagner pots, each having an area of 1/5000 are, were packed with Ube soil (alluvial soil) and planted with seeds or tubers of young rice plant, barnyard grass, bulrush, Cyperus serotinus Rottb., arrowhead and monochoria. Then, the pots were filled with water to a depth of 3 cm.
(§10) Each wettable powder of the desired Compounds (I) shown in Tables 1 to 21, 24, 25, 28 and 29 prepared in accordance with Example 2 was diluted with water containing a surfactant (0.05%) and subjected to dropwise addition treatment by using pipet so that an effective concentration of the compound (I) in each herbicide became 500 g/ha at 1.5 leaf stage of barnyard grass.
(§11) These plants were controlled in a glass house at an average temperature of 25° C. for 3 weeks, and then herbicidal effects thereof were investigated.
as §1

velvetleaf [7] = experiment: Foliar spread test for upland field; type: in vivo, Abutilon theophrasti; design: key: 0 = normal development, 5 = all killed (6 ranks vs. untreated); settings: foliar spray, 500 ppm, 3 weeks, glass house 25° C.
Method in brief: as §7

Cyperus serotinus Rottb. = experiment: Herbicidal test for paddy field; type: in vivo; settings: 500 g/ha, dropwise addition to paddy water at 1.5 leaf stage of barnyard grass; glass house 25° C., 3 weeks; rank 0-5 vs non-treated district
Experimental: as §9, §10, §11, §1

Large crabgrass [8] = experiment: Soil treatment test for upland field; type: in vivo, Digitaria adscendens; design: key: 0 = normal development, 5 = all killed; settings: 500 g/ha, 3 weeks, glass house 25° C.
Method in brief: as §6

green foxtail [9] = experiment: Soil treatment test for upland field; type: in vivo, Setaria viridis; design: key: 0 = normal development, 5 = all killed; settings: 500 g/ha, 3 weeks, glass house 25° C.
Method in brief: as §6

annual bluegrass [10] = experiment: Soil treatment test for upland field; type: in vivo, Poa annua; design: key: 0 = normal development, 5 = all killed; settings: 500 g/ha, 3 weeks, glass house 25° C.
Method in brief: as §6

barnyard grass [11] = experiment: Herbicidal test for paddy field; type: in vivo, Eschinochloa crusgalli; settings: 500 g/ha, dropwise addition to paddy water at 1.5 leaf stage of barnyard grass; glass house 25° C., 3 weeks; rank 0-5 vs non-treated district
Method in brief: as §8

morning glory [12] = experiment: Foliar spread test for upland field; type: in vivo, Ipomoea spps.; design: key: 0 = normal development, 5 = all killed (6 ranks vs. untreated); settings: foliar spray, 500 ppm, 3 weeks, glass house 25° C.
Method in brief: as §7

[13] = test system: sicklepod (Cassia obtusifolia); experiment: Soil treatment test for upland field; type: in vivo; settings: 500 g/ha, 3 weeks, glass house 25° C.
Experimental: as §1
(§12) Wagner pots, each having an area of 1/5000 are, were packed with Ube soil (alluvial soil), and then each seed of corn, soybean, cotton, wheat, solgum, sugar beat, Large crabgrass, barnyard grass, green foxtail, blackgrass, annual bluegrass, common lambsquarters, livid amaranth, velvetleaf, morning glory, common Cocklebur (Xanthium strumarium) and sicklepod (Cassia obtusifolia) were planted and covered with soil.
(§13) Each wettable powder of the desired compounds (I) shown in Tables 1 to 21, 24, 25, 28 and 29 prepared in accordance with Example 2 was diluted with water containing a surfactant (0.05%) and uniformly sprayed on the surface of each soil so that an effective concentration of the compound (I) in each herbicide became 500 g/ha.
as §11, §5

Large crabgrass [14] = experiment: Foliar spread test for upland field; type: in vivo, Digitaria adscendens; design: key: 0 = normal development, 5 = all killed (6 ranks vs. untreated); settings: foliar spray, 500 ppm, 3 weeks, glass house 25° C.
Method in brief: as §7

velvetleaf [15] = experiment: Soil treatment test for upland field; type: in vivo, Abutilon theophrasti; design: key: 0 = normal development, 5 = all killed; settings: 500 g/ha, 3 weeks, glass house 25° C.
Method in brief: as §6

green foxtail [16] = experiment: Foliar spread test for upland field; type: in vivo, Setaria viridis; design: key: 0 = normal development, 5 = all killed (6 ranks vs. untreated); settings: foliar spray, 500 ppm, 3 weeks, glass house 25° C.
Method in brief: as §7

annual bluegrass [17] = experiment: Foliar spread test for upland field; type: in vivo, Poa annua; design: key: 0 = normal development, 5 = all killed (6 ranks vs. untreated); settings: foliar spray, 500 ppm, 3 weeks, glass house 25° C.
Method in brief: as §7

livid amaranth [18] = experiment: Foliar spread test for upland field; type: in vivo, Amaranthus lividus; design: key: 0 = normal development, 5 = all killed (6 ranks vs. untreated); settings: foliar spray, 500 ppm, 3 weeks, glass house 25° C.
Method in brief: as §7

morning glory [19] = experiment: Soil treatment test for upland field; type: in vivo, Ipomoea spps.; design: key: 0 = normal development, 5 = all killed; settings: 500 g/ha, 3 weeks, glass house 25° C.
Method in brief: as §6

common lambsquarters [20] = experiment: Foliar spread test for upland field; type: in vivo, Chenopodium album; design: key: 0 = normal development, 5 = all killed (6 ranks vs. untreated); settings: foliar spray, 500 ppm, 3 weeks, glass house 25° C.
Method in brief: as §7

solgum [21] = experiment: Foliar spread test for upland field; type: in vivo; design: key: 0 = normal development, 5 = all killed (6 ranks vs. untreated); settings: foliar spray, 500 ppm, 3 weeks, glass house 25° C.
Method in brief: as §7

wheat [22] = experiment: Foliar spread test for upland field; type: in vivo; design: key: 0 = normal development, 5 = all killed (6 ranks vs. untreated); settings: foliar spray, 500 ppm, 3 weeks, glass house 25° C.
Method in brief: as §7

cotton = experiment: Foliar spread test for upland field; type: in vivo; design: key: 0 = normal development, 5 = all killed (6 ranks vs. untreated); settings: foliar spray, 500 ppm, 3 weeks, glass house 25° C.
Method in brief: as §7

sugar beat [23] = experiment: Foliar spread test for upland field; type: in vivo; design: key: 0 = normal development, 5 = all killed (6 ranks vs. untreated); settings: foliar spray, 500 ppm, 3 weeks, glass house 25° C.
Method in brief: as §7

soybean = experiment: Foliar spread test for upland field; type: in vivo; design: key: 0 = normal development, 5 = all killed (6 ranks vs. untreated); settings: foliar spray, 500 ppm, 3 weeks, glass house 25° C.
Method in brief: as §7

corn [24] = experiment: Foliar spread test for upland field; type: in vivo; design: key: 0 = normal development, 5 = all killed (6 ranks vs. untreated); settings: foliar spray, 500 ppm, 3 weeks, glass house 25° C.
Method in brief: as §7

blackgrass [25] = experiment: Foliar spread test for upland field; type: in vivo, Alopecurus aegualis; design: key: 0 = normal development, 5 = all killed (6 ranks vs. untreated); settings: foliar spray, 500 ppm, 3 weeks, glass house 25° C.
Method in brief: as §7

wheat [26] = experiment: Soil treatment test for upland field; type: in vivo; design: key: 0 = normal development, 5 = all killed; settings: 500 g/ha, 3 weeks, glass house 25° C.
Method in brief: as §6

[27] = test system: common Cocklebur (Xanthium strumarium); experiment: Soil treatment test for upland field; type: in vivo; settings: 500 g/ha, 3 weeks, glass house 25° C.
Experimental: as §1, §12, §13, §11, §5

livid amaranth [28] = experiment: Soil treatment test for upland field; type: in vivo, Amaranthus lividus; design: key: 0 = normal development, 5 = all killed; settings: 500 g/ha, 3 weeks, glass house 25° C.
Method in brief: as §6

Row | Structure (SMILES) | Effects Sicklepod (Cassia obtusifolia) | Effects Common Cocklebur (Xanthium pensylvanicum) | Effects Barnyardgrass (barnyard grass [1]) | Effects Barnyardgrass (barnyardgrjass) | Effects Bulrush (bulrush) | Effects Common lambsquarters (common lambsquarters [2]) | Effects Solgum (solgum [3]) | Effects Sugar beat (sugar beat [4]) | Effects Corn (corn [5]) | Effects Blackgrass (blackgrass [6]) | Effects Arrowhead (arrowhead) | Effects Velvetleaf (velvetleaf [7]) | Effects Cyperus serotinus Rottb. (Cyperus serotinus Rottb.) | Effects Large crabgrass (Large crabgrass [8]) | Effects Green foxtail (green foxtail [9]) | Effects Annual bluegrass (annual bluegrass [10]) | Effects Barnyardgrass (barnyard grass [11]) | Effects Morning glory (morning glory [12]) | Effects Large crabgrass (Large crabgrass [14]) | Effects Velvetleaf (velvetleaf [15]) | other results
1 | COc1ccc2oc(-c3cccc(Oc4cccc(C(F)(F)F)c4)n3)nc2c1 [I-a-4] | 4 | 3 | 3 | 0 | 0 | 0 | 0 | 0 | 0 | 0 | 0 | 3 | 0 | 0 | 1 | 0 | 0 | 5 | 1 | 1 | Effects Sicklepod [13]: 0; Effects Green foxtail (green foxtail [16]): 1; Effects Annual bluegrass (annual bluegrass [17]): 1; Effects Livid amaranth (livid amaranth [18]): 5; Effects Morning glory (morning glory [19]): 1; Effects Common lambsquarters (common lambsquarters [20]): 5; Effects Solgum (solgum [21]): 1; Effects Wheat (wheat [22]): 1; Effects Sotton (cotton): 2; Effects Sugar beat (sugar beat [23]): 4; Effects Soybean (soybean): 2; Effects Corn (corn [24]): 1; Effects Blackgrass (blackgrass [25]): 0
2 | FC(F)(F)c1cccc(Oc2cccc(-c3nc4cc(C(F)(F)F)ccc4o3)n2)c1 [I-a-13] | 5 | 4 | 4 | 2 | 0 | 5 | 0 | 5 | 1 | 4 | 1 | 4 | 0 | 5 | 5 | 5 | 2 | 5 | 3 | 5 | Effects Wheat (wheat [26]): 1; Effects Common Cocklebur [27]: 3; Effects Livid amaranth (livid amaranth [28]): 5; Effects Green foxtail (green foxtail [16]): 5; Effects Annual bluegrass (annual bluegrass [17]): 4; Effects Livid amaranth (livid amaranth [18]): 5; Effects Morning glory (morning glory [19]): 4; Effects Common lambsquarters (common lambsquarters [20]): 5; Effects Solgum (solgum [21]): 2; Effects Wheat (wheat [22]): 2; Effects Sotton (cotton): 5; Effects Sugar beat (sugar beat [23]): 4; Effects Soybean (soybean): 3; Effects Corn (corn [24]): 2; Effects Blackgrass (blackgrass [25]): 3
